Test results reported in patent US8710045B2, “Agents for preventing and treating disorders involving modulation of the ryanodine receptors” (The Trustees of Columbia University in the City of New York, priority 2004, dated 2014).
Values joined by “and” are separate entries in the source; they are usually repeats but may differ in a detail not shown here. Identical values can stand only once. Like-named read-outs stand apart in the source and are kept apart here.

Key:
C57BL/6J mice = assay: Morris water maze spatial learning in exercised mice; assay type: in vivo, mouse; details: end of 21-day testing period, p approximately 0.2, n=8
Method: 16 wild type C57BL/6J 3-month-old mice, pairwise-matched for sex, age, and body weight, were randomized to either S 107 treatment (10 mg/ml; 0.25 μl/hr subcutaneous osmotic pump) or “vehicle” (25% DMSO in dH2O) treatment groups.
Mice were sacrificed after 21 days for performing biochemistry, calcium imaging and ex vivo function studies.
The layout of the water maze system consists of a circular water tank divided into four quadrants (labeled 1 thru 4 in FIG. 58, with four hidden platforms (labeled 5 to 8 in FIG. 58). The following protocol was followed: Day 1: mice trained to find “hidden” platform with visible marker on platform from random starting location. On days 2-4, the visible cue was removed, and mice were repeatedly challenged to find hidden platform at target 5 in quadrant 1. The time taken for each mouse to reach the target, i.e. the “latency,” was recorded. On day 5, the previous day's protocol was repeated, then the hidden platform was removed, and each mouse's movements recorded to quantify time in various target regions. The protocol was repeated in week 2.
The platform was then removed, and the swimming pattern of the mice was assessed at the end of the 21-day testing period.

[1] = Plasma creatine kinase (CPK) activity in chronically exercised mice; assay type: in vivo, mouse
Method: Calpain and Creatine Kinase Assays: Tissue calpain activities were measured using a calpain activity assay kit (Calbiochem, San Diego, Calif.) (FIG. 42B). This assay is based on the degradation of the fluorescent peptide substrate Suc-LLVY-AMC (Calbiochem). Muscle homogenates were diluted to a final concentration of 600 μg/ml and the calpain activity in the homogenate was determined as per manufactures instructions. Plasma creatine kinase (CK) activity was assayed using the regent kit from Pointe Scientific, Inc. (Canton, Mich.) (FIG. 42A). Plasma samples (duplicates, 5 μl each) were added to 200 μl of CK reagent and the change in absorbance at 340 nm was recorded over 4 minutes using a plate reader. The average absorbance change per minute was used to determine the CPK levels as per manufacturer's instructions.
Reduced calpain activation in muscle tissue and reduced muscle tissue damage due to calstabin1 rebinding: One possible mechanism by which calcium released by leaky RyR1 channels impairs exercise performance is the activation of a member of the calpain family of Ca^2+-dependent neutral proteases, which are known to be responsible for muscle damage in a number of pathophysiological states. […] Calpain activity in muscle homogenates was assessed by means of the degradation of the synthetic calpain substrate Suc-LLVY-AMC, which fluoresces upon cleavage by calpain.

hERG current [2] = target: T1, hERG current (Homo sapiens, UniProt Q12809); assay: hERG current, PatchXpress 7000A automatic parallel patch clamp in hERG-transfected HEK 293 cells (Example 6); details: for Individual Data (% Inhibition): single cell
T1 sequence (Q12809 whole entry): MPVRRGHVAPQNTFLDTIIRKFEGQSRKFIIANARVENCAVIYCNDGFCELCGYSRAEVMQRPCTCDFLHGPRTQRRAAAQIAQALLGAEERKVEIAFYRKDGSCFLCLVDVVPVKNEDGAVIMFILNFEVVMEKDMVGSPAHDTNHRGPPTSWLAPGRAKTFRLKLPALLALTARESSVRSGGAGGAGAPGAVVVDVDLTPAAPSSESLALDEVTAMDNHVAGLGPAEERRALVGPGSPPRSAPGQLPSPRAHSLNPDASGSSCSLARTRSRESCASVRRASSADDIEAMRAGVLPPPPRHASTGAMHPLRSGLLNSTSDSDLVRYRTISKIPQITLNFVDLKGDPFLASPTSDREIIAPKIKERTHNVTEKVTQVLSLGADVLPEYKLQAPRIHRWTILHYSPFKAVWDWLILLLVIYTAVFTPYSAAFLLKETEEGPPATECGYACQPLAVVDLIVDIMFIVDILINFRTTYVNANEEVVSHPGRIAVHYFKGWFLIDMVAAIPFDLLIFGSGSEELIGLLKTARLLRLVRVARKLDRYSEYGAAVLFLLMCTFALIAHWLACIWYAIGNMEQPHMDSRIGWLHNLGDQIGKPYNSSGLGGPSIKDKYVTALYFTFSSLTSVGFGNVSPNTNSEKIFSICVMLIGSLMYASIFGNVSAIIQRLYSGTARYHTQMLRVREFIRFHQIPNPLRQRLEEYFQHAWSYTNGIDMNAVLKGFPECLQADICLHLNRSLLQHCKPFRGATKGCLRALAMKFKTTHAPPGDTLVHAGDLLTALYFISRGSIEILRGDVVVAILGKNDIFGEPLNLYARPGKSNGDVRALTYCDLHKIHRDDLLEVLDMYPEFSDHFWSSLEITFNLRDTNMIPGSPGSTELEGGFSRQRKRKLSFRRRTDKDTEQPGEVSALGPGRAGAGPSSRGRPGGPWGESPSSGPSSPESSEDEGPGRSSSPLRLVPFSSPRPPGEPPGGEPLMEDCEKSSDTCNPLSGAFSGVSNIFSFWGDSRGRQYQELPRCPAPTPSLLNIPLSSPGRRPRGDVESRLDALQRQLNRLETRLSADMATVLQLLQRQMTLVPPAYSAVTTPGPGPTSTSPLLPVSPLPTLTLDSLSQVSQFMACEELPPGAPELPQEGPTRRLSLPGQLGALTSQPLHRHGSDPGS
Outline: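 Stable hERG-HEK293 cells on automated patch clamp; from −80 mV holding, +20 mV for 2 s then −50 mV for 2 s, every 10 s, peak tail current measured.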

hERG = hERG (Homo sapiens, UniProt Q12809); assay: hERG current, manual whole-cell patch clamp in hERG-transfected HEK 293 cells (Example 5); assay type: cell-based; design: expressed in transfected cells; host or cells: HEK 293; details: human, HEK 293 cells stably transfected with hERG cDNA
Sequence of hERG (Q12809 whole entry, the tested form may be a part): as the sequence (Q12809 whole entry) above
Method: (§1) Electrophysiological recordings (using the whole-cell patch clamp method) were performed at room temperature (18° C.-24° C.). Each cell acted as its own control. The effect of ARM0036 was evaluated at two concentrations: 10 and 100 μM. Each concentration was tested in at least three cells (n≧3). 90 nM Cisapride (commercially available from TOCRIS Bioscience) was used as a positive control for hERG blockade. For recording, cells were transferred to the recording chamber and superfused with vehicle control solution. The patch pipette solution for whole cell recording contained 130 mM potassium aspartate, 5 mM MgCl2, 5 mM EGTA, 4 mM ATP and 10 mM HEPES. The pH was adjusted to 7.2 with KOH. The pipette solution was prepared in batches, aliquoted, and stored frozen. A fresh aliquot was thawed and used each day. Patch pipettes were made from glass capillary tubing using a P-97 micropipette puller (Sutter Instruments, Novato, Calif.). A commercial patch clamp amplifier was used for whole cell recordings. Before digitization, current records were low-pass filtered at one-fifth of the sampling frequency.

hERG current [3] = target: T1, hERG current; assay: as above; assay type: cell-based; design: expressed in transfected cells; host or cells: HEK 293
Method: as §1

SMILES	learning / persistence in Morris water maze probe (C57BL/6J mice)	plasma CPK activity levels [1]	Mean % hERG Inhibition (hERG current [2]; 0.01 μM) [%]	Individual Data (% Inhibition) (hERG current [2]; 0.01 μM, listed as ARM107, 0.01 µM)	Mean % hERG Inhibition (hERG current [2]; 0.1 μM) [%]	Individual Data (% Inhibition) (hERG current [2]; 0.1 μM, listed as ARM107, 0.1 µM)	Mean % hERG Inhibition (hERG current [2]; 1 μM) [%]	Individual Data (% Inhibition) (hERG current [2]; 1 μM, listed as ARM107, 1 µM)	Mean % hERG Inhibition (hERG current [2]; 10 μM) [%]	Individual Data (% Inhibition) (hERG current [2]; 10 μM, listed as ARM107, 10 µM)	hERG current inhibition at the highest concentration tested (hERG current [2]; highest concentration tested (10 μM))	inhibition at 10 µM (hERG; 10 μM, read-out: Mean percent inhibition of hERG current) [%]	inhibition at 100 µM (hERG; 100 μM, read-out: Mean percent inhibition of hERG current) [%]	inhibition at 100 µM (hERG; highest concentration tested (100 μM), read-out: hERG current inhibition at the highest concentration tested) [%]	block of HERG K+ channel (IKr) (hERG current [3])	effect on hERG outward tail current (hERG current [3]; 100 μM)
COc1ccc2c(c1)CN(C)CCS2 [S107]	trend towards improved learning or increased persistence	reduced close to the levels observed in sedentary controls	2.9	1.7% and 4.0%	4.0	3.1% and 4.8%	6.2	2.0% and 10.4%	32.1	24.2% and 39.9%	less than 50%					
COc1ccc2c(c1)CN(C(=O)C(=O)O)CCS2 [S36]												0.7	0.9	< 50	does not block	minimally reduced
